Source: US9693556B2, “Herbicidal pyridazinone derivatives” (SYNGENTA LIMITED, priority 2011, dated 2017)

Tests used:
Format in all cases: in vivo
[1] = system: Alopecurus myosuroides (ALOMY); assay: Pre-emergence herbicidal glasshouse test on Alopecurus myosuroides; conditions: pre-emergence; 1000 g/h; evaluated after 13 days
Summary of the method: (§1)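 Scoring scale: 5=80-100%, 4=60-79%, 3=40-59%, 2=20-39%, 1=0-19% damage, assessed on day 13. Compound sprayed at 1000 g/h on soil-grown plants (day 1 pre-, day 8 post-emergence) kept at 24/16 °C, 14 h light.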

[2] = system: Setaria faberi (SETFA); assay: Pre-emergence herbicidal glasshouse test on Setaria faberi; conditions: pre-emergence; 1000 g/h; evaluated after 13 days
Summary of the method: as §1

[3] = system: Echinochloa crus-galli (ECHCG); assay: Pre-emergence herbicidal glasshouse test on Echinochloa crus-galli; conditions: pre-emergence; 1000 g/h; evaluated after 13 days
Summary of the method: as §1

[4] = system: Solanum nigrum (SOLNI); assay: Pre-emergence herbicidal glasshouse test on Solanum nigrum; conditions: pre-emergence; 1000 g/h; evaluated after 13 days
Summary of the method: as §1

[5] = system: Amaranthus retoflexus (AMARE); assay: Pre-emergence herbicidal glasshouse test on Amaranthus retoflexus; conditions: pre-emergence; 1000 g/h; evaluated after 13 days
Summary of the method: as §1

[6] = system: Ipomoea hederacea (IPOHE); assay: Pre-emergence herbicidal glasshouse test on Ipomoea hederacea; conditions: pre-emergence; 1000 g/h; evaluated after 13 days
Summary of the method: as §1

[7] = system: Alopecurus myosuroides (ALOMY); assay: Post-emergence herbicidal glasshouse test on Alopecurus myosuroides; conditions: post-emergence; 1000 g/h; evaluated after 13 days
Summary of the method: as §1

[8] = system: Setaria faberi (SETFA); assay: Post-emergence herbicidal glasshouse test on Setaria faberi; conditions: post-emergence; 1000 g/h; evaluated after 13 days
Summary of the method: as §1

[9] = system: Echinochloa crus-galli (ECHCG); assay: Post-emergence herbicidal glasshouse test on Echinochloa crus-galli; conditions: post-emergence; 1000 g/h; evaluated after 13 days
Summary of the method: as §1

[10] = system: Solanum nigrum (SOLNI); assay: Post-emergence herbicidal glasshouse test on Solanum nigrum; conditions: post-emergence; 1000 g/h; evaluated after 13 days
Summary of the method: as §1

[11] = system: Amaranthus retoflexus (AMARE); assay: Post-emergence herbicidal glasshouse test on Amaranthus retoflexus; conditions: post-emergence; 1000 g/h; evaluated after 13 days
Summary of the method: as §1

[12] = system: Ipomoea hederacea (IPOHE); assay: Post-emergence herbicidal glasshouse test on Ipomoea hederacea; conditions: post-emergence; 1000 g/h; evaluated after 13 days
Summary of the method: as §1

Cn1ncc(-n2ccc(C(F)(F)F)c(-c3ccccc3)c2=O)c(O)c1=O [Compound 1.054]
4 (4=60-79% damage): POST Application IPOHE herbicidal damage (five point scale) [12]
3 (3=40-59% damage): PRE Application IPOHE herbicidal damage (five point scale) [6]
5 (5=80-100% damage): PRE Application ALOMY herbicidal damage (five point scale) [1] | PRE Application SETFA herbicidal damage (five point scale) [2] | PRE Application ECHCG herbicidal damage (five point scale) [3] | PRE Application SOLNI herbicidal damage (five point scale) [4] | PRE Application AMARE herbicidal damage (five point scale) [5] | POST Application ALOMY herbicidal damage (five point scale) [7] | POST Application SETFA herbicidal damage (five point scale) [8] | POST Application ECHCG herbicidal damage (five point scale) [9] | POST Application SOLNI herbicidal damage (five point scale) [10] | POST Application AMARE herbicidal damage (five point scale) [11]

Cn1ncc(-c2ccccc2[S+]([O-])C(F)(F)F)c(O)c1=O (stereo not drawn) [Compound 1.055]
5 (5=80-100% damage): PRE Application AMARE herbicidal damage (five point scale) [5] | POST Application SOLNI herbicidal damage (five point scale) [10] | POST Application AMARE herbicidal damage (five point scale) [11]
4 (4=60-79% damage): PRE Application SOLNI herbicidal damage (five point scale) [4] | POST Application ECHCG herbicidal damage (five point scale) [9] | POST Application IPOHE herbicidal damage (five point scale) [12]
1 (1=0-19% damage): PRE Application ALOMY herbicidal damage (five point scale) [1] | PRE Application SETFA herbicidal damage (five point scale) [2] | POST Application ALOMY herbicidal damage (five point scale) [7] | POST Application SETFA herbicidal damage (five point scale) [8]
2 (2=20-39% damage): PRE Application ECHCG herbicidal damage (five point scale) [3] | PRE Application IPOHE herbicidal damage (five point scale) [6]

Cn1ncc(-c2ccccc2S(=O)(=O)C(F)(F)F)c(O)c1=O [Compound 1.056]
4 (4=60-79% damage): PRE Application SOLNI herbicidal damage (five point scale) [4]
5 (5=80-100% damage): PRE Application ALOMY herbicidal damage (five point scale) [1] | PRE Application ECHCG herbicidal damage (five point scale) [3] | PRE Application AMARE herbicidal damage (five point scale) [5] | POST Application ALOMY herbicidal damage (five point scale) [7] | POST Application SETFA herbicidal damage (five point scale) [8] | POST Application ECHCG herbicidal damage (five point scale) [9] | POST Application SOLNI herbicidal damage (five point scale) [10] | POST Application AMARE herbicidal damage (five point scale) [11] | POST Application IPOHE herbicidal damage (five point scale) [12]
1 (1=0-19% damage): PRE Application SETFA herbicidal damage (five point scale) [2] | PRE Application IPOHE herbicidal damage (five point scale) [6]

Cn1ncc(-c2ccc(F)cc2[S+](C)[O-])c(O)c1=O (stereo not drawn) [Compound 1.057]
5 (5=80-100% damage): PRE Application ALOMY herbicidal damage (five point scale) [1] | PRE Application SETFA herbicidal damage (five point scale) [2] | PRE Application ECHCG herbicidal damage (five point scale) [3] | PRE Application SOLNI herbicidal damage (five point scale) [4] | PRE Application AMARE herbicidal damage (five point scale) [5] | POST Application ALOMY herbicidal damage (five point scale) [7] | POST Application SETFA herbicidal damage (five point scale) [8] | POST Application ECHCG herbicidal damage (five point scale) [9] | POST Application SOLNI herbicidal damage (five point scale) [10] | POST Application AMARE herbicidal damage (five point scale) [11] | POST Application IPOHE herbicidal damage (five point scale) [12]
2 (2=20-39% damage): PRE Application IPOHE herbicidal damage (five point scale) [6]

Cn1ncc(-c2ccc(F)cc2S(C)(=O)=O)c(O)c1=O [Compound 1.058]
5 (5=80-100% damage): PRE Application ALOMY herbicidal damage (five point scale) [1] | PRE Application SETFA herbicidal damage (five point scale) [2] | PRE Application ECHCG herbicidal damage (five point scale) [3] | PRE Application SOLNI herbicidal damage (five point scale) [4] | PRE Application AMARE herbicidal damage (five point scale) [5] | PRE Application IPOHE herbicidal damage (five point scale) [6] | POST Application ALOMY herbicidal damage (five point scale) [7] | POST Application SETFA herbicidal damage (five point scale) [8] | POST Application ECHCG herbicidal damage (five point scale) [9] | POST Application SOLNI herbicidal damage (five point scale) [10] | POST Application AMARE herbicidal damage (five point scale) [11] | POST Application IPOHE herbicidal damage (five point scale) [12]

Cn1ncc(-c2ccc(Cl)cc2[S+](C)[O-])c(O)c1=O (stereo not drawn) [Compound 1.059]
5 (5=80-100% damage): PRE Application ALOMY herbicidal damage (five point scale) [1] | PRE Application SETFA herbicidal damage (five point scale) [2] | PRE Application ECHCG herbicidal damage (five point scale) [3] | PRE Application SOLNI herbicidal damage (five point scale) [4] | PRE Application AMARE herbicidal damage (five point scale) [5] | PRE Application IPOHE herbicidal damage (five point scale) [6] | POST Application ALOMY herbicidal damage (five point scale) [7] | POST Application SETFA herbicidal damage (five point scale) [8] | POST Application ECHCG herbicidal damage (five point scale) [9] | POST Application SOLNI herbicidal damage (five point scale) [10] | POST Application AMARE herbicidal damage (five point scale) [11] | POST Application IPOHE herbicidal damage (five point scale) [12]

Cn1ncc(-c2ccc(Cl)cc2S(C)(=O)=O)c(O)c1=O [Compound 1.061]
4 (4=60-79% damage): PRE Application IPOHE herbicidal damage (five point scale) [6]
5 (5=80-100% damage): PRE Application ALOMY herbicidal damage (five point scale) [1] | PRE Application SETFA herbicidal damage (five point scale) [2] | PRE Application ECHCG herbicidal damage (five point scale) [3] | PRE Application SOLNI herbicidal damage (five point scale) [4] | PRE Application AMARE herbicidal damage (five point scale) [5] | POST Application ALOMY herbicidal damage (five point scale) [7] | POST Application SETFA herbicidal damage (five point scale) [8] | POST Application ECHCG herbicidal damage (five point scale) [9] | POST Application SOLNI herbicidal damage (five point scale) [10] | POST Application AMARE herbicidal damage (five point scale) [11] | POST Application IPOHE herbicidal damage (five point scale) [12]

COc1c(Cl)ccc(-c2cnn(C)c(=O)c2O)c1F [Compound 1.063]
1 (1=0-19% damage): PRE Application ALOMY herbicidal damage (five point scale) [1] | PRE Application SETFA herbicidal damage (five point scale) [2] | PRE Application ECHCG herbicidal damage (five point scale) [3] | PRE Application SOLNI herbicidal damage (five point scale) [4] | PRE Application AMARE herbicidal damage (five point scale) [5] | PRE Application IPOHE herbicidal damage (five point scale) [6] | POST Application ALOMY herbicidal damage (five point scale) [7] | POST Application SETFA herbicidal damage (five point scale) [8] | POST Application ECHCG herbicidal damage (five point scale) [9]
2 (2=20-39% damage): POST Application SOLNI herbicidal damage (five point scale) [10]
3 (3=40-59% damage): POST Application AMARE herbicidal damage (five point scale) [11] | POST Application IPOHE herbicidal damage (five point scale) [12]

CN(C)c1c(Cl)ccc(-c2cnn(C)c(=O)c2O)c1F [Compound 1.064]
4 (4=60-79% damage): POST Application IPOHE herbicidal damage (five point scale) [12]
5 (5=80-100% damage): POST Application SOLNI herbicidal damage (five point scale) [10] | POST Application AMARE herbicidal damage (five point scale) [11]
1 (1=0-19% damage): PRE Application ALOMY herbicidal damage (five point scale) [1] | PRE Application SETFA herbicidal damage (five point scale) [2] | PRE Application ECHCG herbicidal damage (five point scale) [3] | PRE Application SOLNI herbicidal damage (five point scale) [4] | PRE Application AMARE herbicidal damage (five point scale) [5] | PRE Application IPOHE herbicidal damage (five point scale) [6] | POST Application ALOMY herbicidal damage (five point scale) [7] | POST Application SETFA herbicidal damage (five point scale) [8] | POST Application ECHCG herbicidal damage (five point scale) [9]
